Measured values from PubChem BioAssay (NCI).
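Following 48 hours of exposure in 96-well plates, responses at five concentrations were used to interpolate endpoints linearly. At the TGI there is no net growth.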

Assays:
Assay in all cases: NCI tumour cell line growth inhibition, 48 h
[1] = test system: 786-0 renal
[2] = test system: A498 renal
[3] = test system: A549 NSCLC
[4] = test system: ACHN renal
[5] = test system: CAKI-1 renal
[6] = test system: CCRF-CEM leukemia
[7] = test system: COLO 205 colon
[8] = test system: DLD-1 colon
[9] = test system: DMS 114 small cell lung
[10] = test system: DMS 273 small cell lung
[11] = test system: EKVX NSCLC
[12] = test system: HCT-116 colon
[13] = test system: HCT-15 colon
[14] = test system: HL-60(TB) leukemia
[15] = test system: HOP-18 NSCLC
[16] = test system: HOP-62 NSCLC
[17] = test system: HOP-92 NSCLC
[18] = test system: HT29 colon
[19] = test system: IGROV1 ovarian
[20] = test system: K-562 leukemia
[21] = test system: KM12 colon
[22] = test system: KM20L2 colon
[23] = test system: LOX IMVI melanoma
[24] = test system: LXFL 529 NSCLC
[25] = test system: M14 melanoma
[26] = test system: M19-MEL melanoma
[27] = test system: MALME-3M melanoma
[28] = test system: MOLT-4 leukemia
[29] = test system: NCI-H23 lung
[30] = test system: NCI-H460 lung
[31] = test system: NCI-H522 lung
[32] = test system: OVCAR-4 ovarian
[33] = test system: OVCAR-5 ovarian
[34] = test system: OVCAR-8 ovarian
[35] = test system: RPMI-8226 leukemia
[36] = test system: RXF 393 renal
[37] = test system: SF-268 CNS
[38] = test system: SF-539 CNS
[39] = test system: SK-MEL-2 melanoma
[40] = test system: SK-OV-3 ovarian
[41] = test system: SN12C renal
[42] = test system: SNB-19 CNS
[43] = test system: SNB-75 CNS
[44] = test system: SNB-78 CNS
[45] = test system: SW-620 colon
[46] = test system: TK-10 renal
[47] = test system: U251 CNS
[48] = test system: UACC-257 melanoma
[49] = test system: UACC-62 melanoma
[50] = test system: UO-31 renal
[51] = test system: XF 498 CNS
[52] = test system: HCC-2998 colon
[53] = test system: NCI-H226 lung
[54] = test system: OVCAR-3 ovarian
[55] = test system: RXF-631 renal
[56] = test system: SF-295 CNS
[57] = test system: SK-MEL-28 melanoma
[58] = test system: SK-MEL-5 melanoma
[59] = test system: SR leukemia
[60] = test system: MCF7 breast
[61] = test system: NCI/ADR-RES ovarian
[62] = test system: P388 leukemia
[63] = test system: P388/ADR leukemia
[64] = test system: SN12K1 renal

For `CC(=O)O[C@H]1C(=O)[C@@]2(C)C(C(OC(=O)c3ccccc3)[C@]3(O)CC(OC(=O)C(O)C(NC(=O)c4ccccc4)c4ccc(C)cc4)C(C)=C1C3(C)C)[C@]1(OC(C)=O)CO[C@@H]1C[C@@H]2O` (stereo not given in full), the TGI [1] was 6.68 µM, the TGI [2] was > 25 µM and the TGI [3] was 21.5 µM. The TGI [4] was > 25 µM, the TGI [5] was 12.1 µM and the TGI [6] was 9.81 µM. The TGI [7] was 0.407 µM, the TGI [8] was > 25 µM and the TGI [9] was 0.168 µM. For the same compound, the TGI [10] was 2.89 µM, the TGI [11] was > 25 µM and the TGI [12] was 4.75 µM. For the same compound, the TGI [13] was 8.01 µM, the TGI [14] was 2.55 µM and the TGI [15] was 23.6 µM. For the same compound, the TGI [16] was 24.1 µM, the TGI [17] was 11.3 µM and the TGI [18] was 0.0861 µM. The TGI [19] was 19 µM, the TGI [20] was > 25 µM and the TGI [21] was 9.9 µM. The TGI [22] was 0.0981 µM, the TGI [23] was 6.75 µM and the TGI [24] was 11.1 µM. The TGI [25] was 0.105 µM, the TGI [26] was 3.57 µM and the TGI [27] was 10.4 µM. For the same compound, the TGI [28] was 5.82 µM, the TGI [29] was 21.8 µM and the TGI [30] was > 25 µM. For the same compound, the TGI [31] was 0.0396 µM, the TGI [32] was > 25 µM and the TGI [33] was 0.237 µM. It also gave a TGI [34] of 1.01 µM, a TGI [35] of 7.56 µM and a TGI [36] of 0.13 µM. The TGI [37] was > 25 µM, the TGI [38] was 0.0652 µM and the TGI [39] was 0.121 µM. The TGI [40] was 0.0962 µM, the TGI [41] was > 25 µM and the TGI [42] was 0.523 µM. For the same compound, the TGI [43] was 1.31 µM, the TGI [44] was > 25 µM and the TGI [45] was 0.0256 µM. For the same compound, the TGI [46] was > 25 µM, the TGI [47] was 0.264 µM and the TGI [48] was > 25 µM. It also gave a TGI [49] of 6.51 µM, a TGI [50] of 11.5 µM and a TGI [51] of 0.134 µM.
For `CCOC(=O)NC(=O)c1cn(C2OC(CO)C(O)C2O)c(=O)[nH]c1=O` (stereo not given), the TGI [1] was > 100 µM, the TGI [2] was > 100 µM and the TGI [3] was > 100 µM. For the same compound, the TGI [4] was > 100 µM, the TGI [5] was > 100 µM and the TGI [8] was > 100 µM. The TGI [9] was > 100 µM, the TGI [10] was > 100 µM and the TGI [11] was > 100 µM. For the same compound, the TGI [52] was > 100 µM, the TGI [12] was > 100 µM and the TGI [13] was > 100 µM. For the same compound, the TGI [14] was > 100 µM, the TGI [16] was > 100 µM and the TGI [18] was > 100 µM. The TGI [19] was > 100 µM, the TGI [20] was > 100 µM and the TGI [21] was > 100 µM. For the same compound, the TGI [22] was > 100 µM, the TGI [23] was > 100 µM and the TGI [24] was > 100 µM. For the same compound, the TGI [25] was > 100 µM, the TGI [26] was > 100 µM and the TGI [27] was > 100 µM. For the same compound, the TGI [28] was > 100 µM, the TGI [53] was > 100 µM and the TGI [30] was > 100 µM. For the same compound, the TGI [31] was > 100 µM, the TGI [54] was > 100 µM and the TGI [32] was > 100 µM. The TGI [33] was > 100 µM, the TGI [34] was > 100 µM and the TGI [35] was > 100 µM. For the same compound, the TGI [36] was > 100 µM, the TGI [55] was > 100 µM and the TGI [37] was > 100 µM. The TGI [56] was > 100 µM, the TGI [38] was > 100 µM and the TGI [39] was > 100 µM. The TGI [57] was > 100 µM, the TGI [58] was > 100 µM and the TGI [40] was > 100 µM. For the same compound, the TGI [41] was > 100 µM, the TGI [42] was > 100 µM and the TGI [43] was > 100 µM. For the same compound, the TGI [59] was > 100 µM, the TGI [45] was > 100 µM and the TGI [47] was > 100 µM. The TGI [48] was > 100 µM, the TGI [49] was > 100 µM and the TGI [50] was > 100 µM.
In the case of `CCCCCCc1cn([C@H]2C[C@H](O)[C@@H](CO)O2)c(=O)[nH]c1=O`, the TGI [2] is reported as > 100 µM, the TGI [3] is reported as > 100 µM and the TGI [5] is reported as > 100 µM. The TGI [6] was > 100 µM, the TGI [8] was > 100 µM and the TGI [9] was > 100 µM. For the same compound, the TGI [10] was > 100 µM, the TGI [11] was > 100 µM and the TGI [52] was > 100 µM. The TGI [12] was > 100 µM, the TGI [13] was > 100 µM and the TGI [14] was > 100 µM. The TGI [15] was > 100 µM, the TGI [17] was > 100 µM and the TGI [18] was > 100 µM. For the same compound, the TGI [19] was > 100 µM, the TGI [20] was > 100 µM and the TGI [21] was > 100 µM. For the same compound, the TGI [22] was > 100 µM, the TGI [23] was > 100 µM and the TGI [26] was > 100 µM. The TGI [27] was > 100 µM, the TGI [60] was > 100 µM and the TGI [53] was > 100 µM. The TGI [29] was > 100 µM, the TGI [30] was > 100 µM and the TGI [31] was > 100 µM. The TGI [61] was > 100 µM, the TGI [54] was > 100 µM and the TGI [32] was > 100 µM. For the same compound, the TGI [33] was > 100 µM, the TGI [34] was > 100 µM and the TGI [62] was > 100 µM. For the same compound, the TGI [63] was > 100 µM, the TGI [35] was > 100 µM and the TGI [36] was > 100 µM. For the same compound, the TGI [37] was > 100 µM, the TGI [56] was > 31.6 µM and the TGI [38] was > 100 µM. For the same compound, the TGI [39] was > 100 µM, the TGI [57] was > 100 µM and the TGI [58] was > 100 µM. The TGI [41] was > 100 µM, the TGI [64] was > 100 µM and the TGI [42] was > 100 µM. For the same compound, the TGI [43] was > 100 µM, the TGI [44] was > 100 µM and the TGI [45] was > 100 µM. For the same compound, the TGI [47] was > 100 µM, the TGI [48] was > 100 µM and the TGI [49] was > 31.6 µM. The TGI [50] was > 100 µM and the TGI [51] was > 100 µM.
